The target in one test is T1, human PrCP (Homo sapiens, UniProt P42785).
T1 construct: made in house
T1 sequence (P42785 46-496): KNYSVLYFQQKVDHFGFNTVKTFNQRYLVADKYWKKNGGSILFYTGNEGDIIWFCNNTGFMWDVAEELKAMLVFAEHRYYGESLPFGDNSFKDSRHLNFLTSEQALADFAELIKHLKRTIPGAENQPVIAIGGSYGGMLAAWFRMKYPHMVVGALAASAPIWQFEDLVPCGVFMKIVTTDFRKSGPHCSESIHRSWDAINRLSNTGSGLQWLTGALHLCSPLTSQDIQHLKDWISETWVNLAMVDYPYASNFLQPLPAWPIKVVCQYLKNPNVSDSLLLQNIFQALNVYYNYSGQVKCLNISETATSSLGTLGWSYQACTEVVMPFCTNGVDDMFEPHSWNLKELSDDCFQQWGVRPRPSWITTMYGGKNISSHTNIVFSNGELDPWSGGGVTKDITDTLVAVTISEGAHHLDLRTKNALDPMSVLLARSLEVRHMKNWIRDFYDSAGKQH
Description: Prolylcarboxypeptidase (PRCP) enzyme activity assay, fluorescence intensity kinetic assay. The format is biochemical. On the procedure:
The potency of compounds of formula I against PrCP was determined by a fluorescence intensity kinetic assay measuring the IC50 values of PrCP inhibitor test compounds. […] The assay was run on a Perkin. […] The assay was performed using a Hamilton Star liquid handling workstation. The assay employed the internally quenched fluorescent substrate (1S)-1-carboxy-5-[(2,4-dinitrophenyl)amino]pentyl [(7-methoxy-2-oxo-2H-chromen-4-yl)acetyl]-L-alanyl-L-prolinate prepared in house. The assay was run in a 384-well microtiter plate at 37° C. with a total volume of 50 uL. […] The assay also contained 2% DMSO used to solubilize the substrate and inhibitor. Inhibitors were prepared in 100% DMSO and serial diluted (in 100% DMSO) to generate 11 point titration curves. Either 39 uL of human or mouse PrCP enzyme was added to the wells of the assay plate, followed by a 1 uL addition of the serially diluted inhibitor and mixed three times using a 30 uL mix volume. The reaction was initiated by the addition of 10 uL substrate and mixed three times using a 30 uL mix volume. The reactions were monitored continuously over 25 min at 37° C. to obtain initial velocities. IC50 values were calculated by comparing the resulting rates of reaction of the inhibited and control initial velocities.
The enzymes were diluted in a mixture of 10 mM NaOAc (pH 5.5)/100 mM NaCl buffer containing 25 ug/mL bovine serum albumin that had been warmed to 37° C. in a water bath. The PrCP inhibitor test compounds were plated in 100% DMSO with a highest concentration of 500 uM. There were 12 dilution points for each compound tested including a blank with DMSO only. […] Likewise, two control compounds were similarly titrated and included in each assay, with final starting concentrations starting at 10,000 nM and 200 nM, respectively. […] The substrate was solubilized in 100% DMSO prior to dilution into the assay.

For test [1] the following is noted: systemic administration to obese, leptin deficient mice; cited from earlier work.
The conditions of test [2]: intracerebroventricular to rats; cited from earlier work.
Where [3] appears, read: recombinant human PrCP, cell line CHO, read-out: Human PRCP Enzyme Inhibition IC50.

Counter-ions that a name gives are not always drawn. Like-named read-outs stand apart in the source and are kept apart here.

For orientation: IC50 means the concentration that inhibits the measured activity by half.

For `Fc1ccc(-c2cc([C@@H]3CCN(CCc4ccccc4)C[C@H]3c3ccc(F)cc3)n[nH]2)cc1` (relative stereo) [Example 11, (3R*,4R*)-3-(4-fluorophenyl)-4-[5-(4-fluorophenyl)-1H-pyrazol-3-yl]-1-phenethyl-piperidine trifluoroacetate salt], the half-maximal inhibitory concentration (IC50) on human PrCP (setting [3]) was determined as 2.3 nM.

On to `N#Cc1cccc(-c2cc([C@@H]3CCN(CCc4ccccc4)C[C@H]3c3ccc(F)cc3)n[nH]2)c1` (relative stereo) [Example 12, 3-[3-[(3R*,4R*)-3-(4-fluorophenyl)-1-phenethyl-4-piperidyl]-1H-pyrazol-5-yl]benzonitrile triflizoroacetate salt], for which the IC50 at human PrCP (setting [3]) was determined as 7.9 nM.

As for `Fc1ccc([C@@H]2CN(CCc3ccccc3)CC[C@H]2c2n[nH]c(-c3ccc(Cl)cc3)n2)cc1` (relative stereo) [Example 20, (3R*,4R*)-4-[5-(4-chlorophenyl)-1H-1,2,4-triazol-3-yl]-3-(4-fluorophenyl)-1-phenethyl-piperidine trifluoroacetate salt], the IC50 on human PrCP (setting [3]) is 50.9 nM.

In turn, `Cn1nc(C2(c3ccccn3)CCN(CCc3ccccc3)CC2)cc1-c1ccc(F)cc1` [Example 3, 2-[4-[5-(4-fluorophenyl)-1-methyl-pyrazol-3-yl]-1-phenethyl-4-piperidyl]pyridine bis(trifluoroacetate) salt] registered an IC50 against human PrCP of 498 nM.

The molecule `Clc1ccc(CCN2CCC(c3ccccc3)(c3cc(-c4ccc(Cl)cc4)[nH]n3)CC2)cc1` [Example 6, 1-[2-(4-chlorophenyl)ethyl]-4-[5-(4-chlorophenyl)-1H-pyrazol-3-yl]-4-phenyl-piperidine trifluoroacetate salt] displayed an IC50 at human PrCP of 175 nM.

`CC(C)(C)N1C[C@@H](c2cc(-c3ccc(Cl)cc3)[nH]n2)[C@H](c2ccc(F)cc2F)C1` [Example 13, 3-[(3S,4R)-1-tert-butyl-4-(2,4-difluorophenyl)pyrrolidin-3-yl]-5-(4-chlorophenyl)-1H-pyrazole trifluoroacetate salt]: at human PrCP (recombinant human PrCP, cell line HEK, read-out: Human PRCP Enzyme Inhibition IC50), the IC50 was found to be 413 nM.

With t-butyl carbamate-prolyl prolinal [BPP], the overnight food intake result in test [1] and in test [2] was “suppression of overnight food intake” throughout.

The values are drawn from patent US8921394B2, “Prolylcarboxypeptidase inhibitors” (Merck Sharp & Dohme Corp., priority 2010, dated 2014).
